{"source": "patent US10130590B2", "about": "“Methods of treating cancer with atovaquone-related compounds” (DANA-FARBER CANCER INSTITUTE, INC., priority 2013, dated 2018)", "key": {"STAT1": {"tested_on": "STAT1", "assay": "STAT1 cell-based luciferase reporter system", "experimental": "To determine if atovaquone inhibits STAT3, it was tested in a cell-based reporter system of STAT3 transcriptional activity (Nelson E A, et al. (2008) Nifuroxazide inhibits survival of multiple myeloma cells by directly inhibiting STAT3. Blood 112(13):5095-5102). These cells lack basal STAT3 activation; upon IL-6 treatment, STAT3 becomes activated and drives transcription of a STAT3-dependent luciferase reporter gene. The STAT3-luc reporter cells were pre-treated with drug for 1 hour, then stimulated with IL-6 (10 ng/ml) for 5 hr. Activity of firefly luciferase was measured and normalized by cell viability (Cell Titer Glo). […] To determine if atovaquone inhibits STAT3 activity specifically over other transcription factors, it was tested in cell-based reporter systems for STAT1 and STAT5, two other STAT family members, and NF-κB, an unrelated transcription factor."}, "mTOR pathway": {"tested_on": "mTOR pathway", "assay": "Western blot of mTOR pathway markers (S6, S6K, 4E-BP1)", "assay_type": "cell-based", "experimental": "Western blotting was performed as previously described (Battle T E, Arbiser J, & Frank D A (2005) The natural product honokiol induces caspase dependent apoptosis in B-cell chronic lymphocytic leukemia (B-CLL) cells. Blood 106(2):690-697). Antibodies to phospho-MAPK (9101), total MAPK (9102), phospho-Y705 STAT3 (9131), phospho-S6 (2215), total S6 (2217), phospho-4E-BP1 (9451), total 4E-BP1 (9644), total RSK (9355), phospho-S6K (9234, 85 used at 1:5000), total S6K (2708), phospho-eIF2α (9721, used at 1:1000), total eIF2α (5324), ATF4 (11815, used at 1:1000), PDGFRβ (3169), IGF1Rβ (9750), EGFR (2232), and HER2 (2242) were from Cell Signaling Technology. Phospho-RSK antibody was from R&D (AF889). Antibodies to total STAT3 (sc-482) and gp130 (sc-656, used at 1:1000) were from Santa Cruz Biotechnology. Phospho-S727 STAT3 antibody was described previously (229). REDD1 antibody was from Proteintech (10638-1-AP, used at 1:1000). Antibody recognizing full-length and cleaved ATF6 was from Abcam (ab122897, used at 1:1000). Antibodies to tubulin (T5168) and beta actin (A5316) were from Sigma. All antibodies were used at 1:10000 dilution for western blot unless otherwise noted. For immunoprecipitations, cells were lysed in 500 μl lysis buffer (0.5% NP-40, 150 mM NaCl, 50 mM Tris pH 7.5, with protease and phosphatase inhibitors freshly added at 1:100 [Pierce, PI78443]) on ice for 15 minutes, then centrifuged for 10 minutes at 14,000 RPM and 4° C. The supernatant was transferred to a new tube and incubated with 10 μl JAK2 antibody (Santa Cruz sc-278) or a mix of two TYK2 antibodies, 10 μl of each (Santa Cruz sc-5271 and Cell Signaling Technology 9312). Immunoprecipitation was performed overnight at 4° C. with rotation. The next day, 75 μl of protein A/G beads (Santa Cruz sc-2003) were washed twice in lysis buffer, then incubated with immunoprecipitates overnight as before. The next day, the beads were spun down (1 min. at 7,500 RPM and 4° C.) and washed 3 times with 650 μl lysis buffer for 10 minutes at 4° C. with rotation, then boiled in 50 μl sample buffer+10% β-mercaptoethanol. For Western blot, 20 μl were loaded per lane. For detection of phospho-tyrosine, a mixture of two pan-phospho-tyrosine antibodies (Cell Signaling Technology 9411 and 9416, 1:1000 of each) was used. Antibody to phospho-Y1007/1008 JAK2 was from Cell Signaling 86 Technology (3771, used at 1:1000). Antibody to phospho-Y570 JAK2 was from Millipore (09-241, used at 1:1000). Luminometric Assays Luciferase reporter cell lines were described previously (186). Firefly luciferase values were normalized by concurrent cell viability. Cell viability was measured as ATP-dependent luminescence by Cell Titer Glo (Promega).\nK562 cells were treated with atovaquone (20 μM) or rapamycin (10 nM) for 1 hour or 5 hours, then analyzed by Western blot. […] The requirement for prolonged treatment to observe mTOR inhibition raised the possibility that this effect was mediated by an induced factor. To test this hypothesis, cells were pretreated with cycloheximide, a protein synthesis inhibitor. K562 cells were pre-treated with vehicle or cycloheximide (2 μg/ml) for 1 hour, then treated with vehicle or atovaquone (20 μM) for 5 hours. […] Similar results were obtained with actinomycin D, an inhibitor of mRNA synthesis.\nTo evaluate the role of REDD1, RNA interference was used to knock down its expression in adherent SKBR3 cells, given the relative ease of introducing siRNA into these cells. SKBR3 cells were transfected with control or REDD1 siRNA for 48 hours, then treated with atovaquone (25 μM) for 4 hours.\nNext, U266 cells were treated with 12.5 or 25 μM buparvaquone or 1, 5, or 25 μM 2-(4-(trans-decahydronaphth-2-yl)butyl)-3-hydroxy-1,4-naphthoquinone (Sigma analog), or DMSO vehicle control, for 2.5 hours, after which cells were harvested and immunoblots were performed with antibodies for total and phospho STAT3 and total and phospho S6."}, "[1]": {"tested_on": "unfolded protein response (UPR)", "assay": "Other UPR branches: XBP1 splicing, ATF6 cleavage, UPR target genes", "assay_type": "cell-based", "experimental": "Total RNA was reverse transcribed using random hexamers and assayed by qRT-PCR as previously described (see, Grivennikov S I, Greten F R, & Karin M (2010) Immunity, inflammation, and cancer. Cell 140(6):883-899).\nIn asking how atovaquone induces REDD1, a possible role for ATF4, which regulates REDD1 expression was considered. ATF4 is regulated mainly at the level of translation and is induced upon phosphorylation of eIF2α. […] K562 and AML2 cells, which lack STAT3 activation, were treated with rapamycin for 72 hours. […] For these reasons, it was hypothesized that atovaquone induces eIF2α phosphorylation, with a resulting increase in ATF4 protein and signaling. U266, K562, and SKBR3 cells were treated with atovaquone (20, 20, 25 μM respectively). […] The phospho-eIF2α/ATF4 pathway represents one branch of the UPR, whose other branches consist of ATF6 cleavage and IRE1-mediated XBP1 splicing. […] Thus, atovaquone selectively activates the phospho-eIF2α/ATF4 branch of the UPR. […] Consequently, atovaquone inhibition of STAT3 is not secondary to UPR activation."}, "[2]": {"conditions": "K562, 20 μM, only after 5 hours, efficacy comparable to rapamycin"}}, "data": [{"smiles": "O=C1C(O)=C([C@H]2CC[C@H](c3ccc(Cl)cc3)CC2)C(=O)c2ccccc21", "note": "[atovaquone, trans-2-[4-(4-chlorophenyl)cyclohexyl]-3-hydroxy-1,4-naphthalenedione]", "values": [{"measurement": "STAT1 transcription factor activity", "setting": "STAT1", "result": "modestly affected at the higher doses"}, {"measurement": "phosphorylation of 4E-BP1", "setting": "mTOR pathway; [2]", "result": "inhibited phosphorylation of 4E-BP1"}, {"measurement": "phosphorylation of ribosomal protein S6", "setting": "mTOR pathway; [2]", "result": "inhibited phosphorylation"}, {"measurement": "phosphorylation of p70S6K", "setting": "mTOR pathway; K562, 6 hours", "result": "inhibited phosphorylation of p70S6K"}, {"measurement": "inhibition of S6 phosphorylation after cycloheximide pre-treatment", "setting": "mTOR pathway; K562 and U266, cycloheximide 2 μg/ml 1 hour", "result": "blocked in the presence of cycloheximide"}, {"measurement": "inhibition of S6 phosphorylation after REDD1 knock down", "setting": "mTOR pathway; SKBR3, REDD1 siRNA 48 hours, 25 μM 4 hours", "result": "largely blocked"}, {"measurement": "levels of BiP", "setting": "[1]", "result": "no effect on levels of BiP"}, {"measurement": "ATF6 cleavage", "setting": "[1]; SKBR3, K562, U266, 25, 20, 20 μM", "result": "did not induce"}, {"measurement": "spliced XBP1", "setting": "[1]; U266, K562, SKBR3, 20, 20, 25 μM, 6 hours", "result": "did not induce spliced XBP1"}, {"measurement": "UPR target gene expression", "setting": "[1]; U266, K562, SKBR3, 6 hours, in contrast to tunicamycin and thapsigargin", "result": "did not induce any UPR target genes other than those downstream of ATF4"}]}]}
